According to patent US12655145B2, “P2X3 modulators” (GlaxoSmithKline Intellectual Property (No. 3) Limited, priority 2020, dated 2026):

Each compound was assayed against T1, P2X3 (Homo sapiens, UniProt P56373) (assay: P2X3 Antagonist Assay (FLIPR calcium, Fluo-8, HEK293 cells transfected with human ion channel cDNAs, αβ-meATP stimulation)). Conditions: @ 1 μM, antagonist mode, αβ-meATP 3 μM.
T1 construct: expressed in transfected cells; host or cells: HEK293
T1 sequence (P56373 1-397): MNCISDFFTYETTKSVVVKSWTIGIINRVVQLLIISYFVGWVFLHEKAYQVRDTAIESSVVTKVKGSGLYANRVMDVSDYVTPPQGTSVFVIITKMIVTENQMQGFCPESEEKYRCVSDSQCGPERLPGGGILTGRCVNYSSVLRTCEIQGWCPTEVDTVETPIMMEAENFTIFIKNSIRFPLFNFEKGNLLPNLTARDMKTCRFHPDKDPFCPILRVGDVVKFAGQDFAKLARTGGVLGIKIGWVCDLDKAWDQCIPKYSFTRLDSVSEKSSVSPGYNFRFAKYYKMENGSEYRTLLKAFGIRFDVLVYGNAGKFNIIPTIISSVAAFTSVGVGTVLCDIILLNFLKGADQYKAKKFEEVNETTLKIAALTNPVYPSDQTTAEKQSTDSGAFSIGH
Format: cell-based
Method: Example 59: P2X3 Antagonist Assay
HEK293 were transiently or stably transfected with human ion channel cDNAs as indicated in section 1. Stable transfectants were selected by coexpression with the antibiotic-resistance gene(s) incorporated into the expression plasmid(s). Selection pressure was maintained by including selection antibiotics in the culture medium. HEK293 cells were cultured in Dulbecco's Modified Eagle Medium/Nutrient Mixture F-12 (D-MEM/F-12) supplemented with 10% fetal bovine serum, 100 U/mL penicillin G sodium, 100 J·Lg/mL streptomycin sulfate and appropriate selection antibiotics.
The effect of each test article to act as an antagonist was evaluated. Each test article was evaluated at eight (8) concentrations (0.001, 0.003, 0.01, 0.03, 0.1, 0.3, 1 and 3 μM, n=3) with 4 replicates for each concentration. Experiments were performed with the FLIPR calcium sensitive dye kit (Fluo-8 dye, AAT, Bioquest) according to the manufacturer's instructions. • Dye-loading: Growth media will be removed and add 20 μL of Mg^++-free HBPS containing Fluo-8 for 30 min at 37° C. • Preincubation (FLIPR step 1): Adding 5× (5 μL) test, vehicle, or control article solutions in Mg^+-free HBPS to each well for 20 minutes at room temperature, protected from light. • Stimulation (FLIPR step 2): After pre-incubation, cells will be stimulated with 6× (5 μL) αβ-meATP at final concentration of 3 μM prepared in Mg^++-free HBPS. • Non-Specific Calcium Influx (FLIPR step 3): 5 minutes after stimulation solution addition, non-specific calcium influx will be activated by adding 7×(5 μL) ionomycin at a final concentration of 5 μM. Fluorescence will be recorded continuously during FLIPR steps 2 and 3. • Positive Control Antagonist: PPADS (1 mM).
Data acquisition was performed via the FLIPRControl software that is supplied with the FLIPR System (MDS-AT) and data was analyzed using Microsoft Excel2003 (Microsoft Corp., Redmond, WA).

| Structure (SMILES) | P2X3 IC50 column, given as % @ 1 μM [% @ 1 μM] |
| --- | --- |
| CNC(=O)c1cc(F)c(-c2nc3cc(C)ccn3c2CC2CCCC(NC(C)=O)C2)c(F)c1 (single isomer, unassigned) [trans-A22 (Peak 2), 4-(3-((3-acetamidocyclohexyl)methyl)-7-methylimidazo[1,2-a]pyridin-2-yl)-3,5-difluoro-N-methylbenzamide] | 17 |

Same assay, conditions: HEK293, @ 1 μM, antagonist mode, αβ-meATP 3 μM, read-out: P2X3 IC50 column, given as % @ 1 μM

| Structure (SMILES) | inhibition at 1 µM [%] |
| --- | --- |
| COC(=O)N1CCO[C@@H](Cc2c(-c3ccc([S+](C)[O-])cc3F)nc3cc(C)ccn23)C1 (stereo partly drawn) [Compound A58, methyl (2S)-2-((2-(2-fluoro-4-(methylsulfinyl)phenyl)-7-methyl-imidazo[1,2-a]pyridin-3-yl)methyl)morpholine-4-carboxylate] | 16 |
| CNC(=O)c1cc(F)c(-c2nc3cc(C)cnn3c2C[C@H]2CN(C(=O)OC)CCO2)c(F)c1 [Compound A27, methyl (S)-2-((2-(2,6-difluoro-4-(methylcarbamoyl)phenyl)-7-methylimidazo[1,2-b]pyridazin-3-yl)methyl)morpholine-4-carboxylate] | 6 |
| CNC(=O)c1cc(F)c(-c2nc3cc(C)ccn3c2CC2CN(C(=O)OC)CCCO2)c(F)c1 (single isomer, unassigned) [A14 (Peak 1), methyl 2-((2-(2,6-difluoro-4-(methylcarbamoyl)phenyl)-7-methylimidazo[1,2-a]pyridin-3-yl)methyl)-1,4-oxazepane-4-carboxylate] | 39 |

Same assay, conditions: antagonist mode, αβ-meATP 3 μM

| Structure (SMILES) | IC50 [nM] |
| --- | --- |
| COCCNC(=O)c1ccc(-c2nc3cc(Cl)ccn3c2C[C@H]2CN(C(=O)OC)CCO2)c(F)c1 [Compound A73, methyl (S)-2-((7-chloro-2-(2-fluoro-4-((2-methoxyethyl)carbamoyl)phenyl)imidazo[1,2-a]pyridin-3-yl)methyl)morpholine-4-carboxylate] | > 1000 |
| CNC(=O)c1cc(F)c(-c2cc3cc(C)cnc3n2C[C@H]2CN(C(=O)OC)CCO2)c(F)c1 [Compound A25, methyl (S)-2-((2-(2,6-difluoro-4-(methylcarbamoyl)phenyl)-5-methyl-1H-pyrrolo[2,3-b]pyridin-1-yl)methyl)morpholine-4-carboxylate] | > 1000 |
| CNC(=O)c1cc(F)c(-c2[nH]c3cc(C)cnc3c2C[C@H]2CN(C(=O)OC)CCO2)c(F)c1 [Compound A26, methyl (S)-2-((2-(2,6-difluoro-4-(methylcarbamoyl)phenyl)-6-methyl-1H-pyrrolo[3,2-b]pyridin-3-yl)methyl)morpholine-4-carboxylate] | > 1000 |
| COC(=O)N1CCO[C@@H](Cc2c(-c3ccc(C(=O)N4CC[C@H](O)C4)cc3F)nc3cc(Cl)ccn23)C1 [Compound A68, methyl (S)-2-((7-chloro-2-(2-fluoro-4-((S)-3-hydroxypyrrolidine-1-carbonyl)phenyl)imidazo[1,2-a]pyridin-3-yl)methyl)morpholine-4-carboxylate] | 100 to 1000 |
| CNC(=O)c1ccc(-c2nc3cc(Cl)ccn3c2C[C@H]2CN(C(C)=O)CCO2)c(F)c1 [Compound A88, (S)-4-(3-((4-acetylmorpholin-2-yl)methyl)-7-chloroimidazo[1,2-a]pyridin-2-yl)-3-fluoro-N-methylbenzamide] | 100 to 1000 |
| COC(=O)N1CCO[C@@H](Cc2c(-c3ccc(C(=O)N4CC[C@@H](O)C4)cc3F)nc3cc(Cl)ccn23)C1 [Compound A69, methyl (S)-2-((7-chloro-2-(2-fluoro-4-((R)-3-hydroxypyrrolidine-1-carbonyl)phenyl)imidazo[1,2-a]pyridin-3-yl)methyl)morpholine-4-carboxylate] | > 1000 |
| CNC(=O)c1cc(F)c(-c2nc3cc(C)ccn3c2CC2CCC(NC(C)=O)CC2)c(F)c1 (stereo not drawn) [trans-A21, 4-(3-((4-acetamidocyclohexyl)methyl)-7-methylimidazo[1,2-a]pyridin-2-yl)-3,5-difluoro-N-methylbenzamide] | > 1000 |
| CNC(=O)c1cc(F)c(-c2c(C[C@H]3CN(C(=O)OC)CCO3)nc3cc(C)ncn23)c(F)c1 [Compound A37] | 100 to 1000 |
| CNC(=O)c1ccc(-c2nc3cc(S(C)(=O)=O)ccn3c2C[C@H]2CN(C(=O)OC)CCO2)c(F)c1 [Compound A48, methyl (S)-2-((2-(2-fluoro-4-(methylcarbamoyl)phenyl)-7-(methylsulfonyl)imidazo[1,2-a]-pyridin-3-yl)methyl)morpholine-4-carboxylate] | > 1000 |
| CNC(=O)c1ccc(-c2nc3cc(C(O)C(F)(F)F)ccn3c2C[C@H]2CN(C(=O)OC)CCO2)c(F)c1 (single isomer, unassigned) [A46 (Peak 2)] | > 1000 |

Further lines, results first:

| IC50 [nM] | Structure (SMILES) |
| --- | --- |
| 100 to 1000 | CNC(=O)c1cc(F)c(-c2nc3n(c2C[C@H]2CN(C(=O)OC)CCO2)CCC(C)C3)c(F)c1 (stereo partly drawn) [Compound A34, methyl (2S)-2-((2-(2,6-difluoro-4-(methylcarbamoyl)phenyl)-7-methyl-5,6,7,8-tetrahydroimidazo[1,2-a]pyridin-3-yl)methyl)morpholine-4-carboxylate] |
| < 100 | CNC(=O)c1ccc(-c2nc3cc(Cl)ccn3c2C[C@H]2CN(C(=O)OC)CCO2)c(F)c1 [Compound A11, methyl (S)-2-((2-(2-fluoro-4-(methylcarbamoyl)phenyl)-7-chloroimidazo[1,2-a]pyridin-3-yl)methyl)morpholine-4-carboxylate] |
| < 100 | CNC(=O)c1cc(F)c(-c2nc3cc(C)ccn3c2C[C@H]2CN(C(=O)OC)CCO2)c(OC)c1F [Compound A30, methyl (S)-2-((2-(3,6-difluoro-2-methoxy-4-(methylcarbamoyl)-phenyl)-7-methylimidazo[1,2-a]pyridin-3-yl)methyl)morpholine-4-carboxylate] |
| < 100 | CNC(=O)c1ccc(-c2nc3cc(C)ccn3c2C[C@H]2CN(C(=O)OC)CCO2)c(F)c1 [Compound A10, methyl (S)-2-((2-(2-fluoro-4-(methylcarbamoyl)phenyl)-7-methylimidazo[1,2-a]pyridin-3-yl)methyl)morpholine-4-carboxylate] |
| < 100 | CNC(=O)c1cc(F)c(-c2nc3cc(C)ccn3c2CC2CCN(C(=O)OC)CC2)c(F)c1 [Compound A20, methyl 4-((2-(2,6-difluoro-4-(methylcarbamoyl)phenyl)-7-methylimidazo[1,2-a]pyridin-3-yl)methyl)piperidine-1-carboxylate] |
| < 100 | CNC(=O)c1cc(F)c(-c2nc3cc(Cl)ccn3c2C[C@H]2CN(C(=O)OC)CCO2)c(F)c1 [Compound A2, methyl (S)-2-((7-chloro-2-(2,6-difluoro-4-(methyl-carb-amoyl)-phenyl)-imidazo[1,2-a]pyridin-3-yl)methyl)morpholine-4-carboxylate] |
| < 100 | CNC(=O)c1cc(F)c(-c2nc3cc(C(F)F)ccn3c2C[C@H]2CN(C(=O)OC)CCO2)c(F)c1 [Compound A4, methyl (S)-2-((2-(2,6-difluoro-4-(methylcarbamoyl)phenyl)-7-(di-fluoromethyl)imidazo[1,2-a]pyridin-3-yl)methyl)morpholine-4-carboxylate] |
| < 100 | CNC(=O)c1cc(F)c(-c2nc3cc(C)ccn3c2C[C@H]2CCCN(C(=O)OC)C2)c(F)c1 [(R)-A19, methyl (R)-3-((2-(2,6-difluoro-4-(methylcarbamoyl)phenyl)-7-methylimidazo[1,2-a]pyridin-3-yl)methyl)piperidine-1-carboxylate] |
| < 100 | CCc1ccn2c(C[C@H]3CN(C(=O)OC)CCO3)c(-c3ccc(C(=O)NC)cc3F)nc2c1 [Compound A45, methyl (S)-2-((7-ethyl-2-(2-fluoro-4-(methylcarbamoyl)phenyl)imidazo[1,2-a]pyridin-3-yl)methyl)morpholine-4-carboxylate] |
| < 100 | CNC(=O)c1ccc(-c2nc3cc(Cl)ccn3c2C[C@H]2CN(C(=O)OC)CCO2)c(C)c1 [Compound A7, methyl (S)-2-((7-chloro-2-(2-methyl-4-(methylcarbamoyl)phenyl)-imidazo[1,2-a]pyridin-3-yl)methyl)morpholine-4-carboxylate] |
| < 100 | CNC(=O)c1cc(F)c(-c2nc3cc(Cl)ccn3c2C[C@H]2CN(C(=O)OC)CCO2)c(OC)c1F [Compound A40, methyl (S)-2-((7-chloro-2-(3,6-difluoro-2-methoxy-4-(methyl-carbamoyl)phenyl)imidazo[1,2-a]pyridin-3-yl)methyl)morpholine-4-carboxylate] |
